Results: publication PMC12314892, “Macrocyclic Phage Display for Identification of Selective Protease Substrates” (Journal of the American Chemical Society, 2025)
*1 amine or outer side, *2 acyl side, *3 side chain or, on linkers, in order; H or OH if unused. Where a SMILES comes first, the peptide text is derived from it. Bridges are numbered along the chain shown (N, C = ends). The star is where a group is joined. X1 = NC(=O)Cc1cc(=O)oc2cc(NC(=O)[C@@H]3CCCN3C(=O)Cn3nc(C[*:1])cc3C[*:2])ccc12; X2 = NC(=O)Cc1cc(=O)oc2cc(NC(=O)[C@@H]3CCCN3C(=O)Cn3nc(C[*:2])cc3C[*:1])ccc12; AMC = Cc1cc(=O)oc2cc(N*)ccc12

What was measured:
Assay type in all cases: biochemical
Recombinant Human DPP4 = target: T1, Recombinant Human DPP4 (Homo sapiens, UniProt P27487); test: Kinetic evaluation of substrates; conditions: for SI (selectivity index, coefficient of the proteases kcat/Km), FAPα vs DPP4: kcat/KM FAPα over kcat/KM DPP4
T1 construct: purchased Sino Biological 10688-HNCH-10
Experimental: (§1) Fluorogenic Substrate Cleavage Assay
(§2) The following proteases were used for the activity assay: Recombinant Human FAPα Protein, CF (R&D Systems, Catalog No.: 3715-SE-010), Recombinant Human Prolyl Oligopeptidase/PREP Protein, CF (R&D Systems, Catalog No.: 4308-SE-010). Recombinant Human DPP9 Protein, CF (R&D Systems, Catalog No.: 5419-SE-010). Recombinant Human DPP4 Protein (Sino Biological, Catalog No.: 10688-HNCH-10). The buffers used for the activity assay were: FAPα - 50 mM Tris, 1 M NaCl, 1 mg/mL BSA, pH 7.5, PREP- 25 mM Tris, 250 mM NaCl, 2.5 mM DTT, pH 7.5 (DTT was freshly added immediately before use), DPP9- 25 mM Tris, pH 7.5, DPP4- 25 mM Tris, pH
(§3) 7.5. The following commercial substrates were used: zGP-AMC (Bachem,Catalog No.: […]
(§4) conducted in Greiner Bio-One black microplates of 384 wells and polystyrene F-bottom (Catalog No.: 784076). All compounds were dissolved in DMSO at a concentration of 10 mM and then diluted into the respective buffer to the desired final concentration. The protease was added to the specified concentration before the fluorescence measurements. For fluorescence measurements, 2 μL of substrate was further diluted into 6 μL of buffer, followed by addition of 2 μL of enzyme in buffer. For no enzyme controls 2 μL of substrate was diluted into 8 μL of buffer.
(§5) The fluorescence was measured using a Cytation 3 plate reader (BioTek). All experiments have at least three technical replicates. All assays were conducted at 37°C for a minimum of 90 min, unless otherwise noted. Fluorescence measurements were performed at ex/em, 355/460 nm for ACC substrates. The substrates velocity was quantified by calculating the slope of the linear phase of the reaction as relative fluorescence units (RFU) per min.
(§6) Kinetic evaluation of substrates
To order to determine the kcat/KM, the previously indicated proteases were tested under their corresponding buffer conditions. Substrates were serially diluted in water, and 2 µL of each dilution was added to 6 µL of assay buffer in a 384-well plate. The plate was briefly centrifuged to ensure proper mixing and to eliminate air bubbles. Fluorescence measurements were initiated by adding 2 µL of the protease solution (prepared in activity buffer) to each well, yielding a final volume of 10 µL. Reactions were monitored at 37 °C for 60 minutes using a plate reader set to excitation/emission wavelengths of 355/460 nm. Control wells without enzyme contained 8 µL of assay buffer, instead of enzyme, and 2 µL of substrate. All measurements were performed in at least triplicate. The initial linear portion of each fluorescence progress curve was used to calculate initial reaction velocities (RFU/min). Calibration curves using free AMC were generated under the corresponding buffer and assay conditions to allow extrapolation of RFU values to µM concentrations. Michaelis-Menten kinetic parameters K M, kcat and kcat/,KM were determined using […]
GraphPad Prism version 10.4.1. […]
determined due to poor model fit. […]

Recombinant Human DPP9 = target: T2, Recombinant Human DPP9 (Homo sapiens, UniProt Q86TI2); test: Kinetic evaluation of substrates; conditions: for SI (selectivity index, coefficient of the proteases kcat/Km), FAPα vs DPP9: kcat/KM FAPα over kcat/KM DPP9
T2 construct: purchased R&D Systems 5419-SE-010
Experimental: as §1, §2, §3, §4, §5, §6
To order to determine the kcat/KM, the previously indicated proteases were tested under their corresponding buffer conditions. Substrates were serially diluted in water, and 2 µL of each dilution was added to 6 µL of assay buffer in a 384-well plate. The plate was briefly centrifuged to ensure proper mixing and to eliminate air bubbles. Fluorescence measurements were initiated by adding 2 µL of the protease solution (prepared in activity buffer) to each well, yielding a final volume of 10 µL. Reactions were monitored at 37 °C for 60 minutes using a plate reader set to excitation/emission wavelengths of 355/460 nm. Control wells without enzyme contained 8 µL of assay buffer, instead of enzyme, and 2 µL of substrate. All measurements were performed in at least triplicate. The initial linear portion of each fluorescence progress curve was used to calculate initial reaction velocities (RFU/min). Calibration curves using free AMC were generated under the corresponding buffer and assay conditions to allow extrapolation of RFU values to µM concentrations. Michaelis-Menten kinetic parameters K M, kcat and kcat/,KM were determined using GraphPad Prism version 10.4.1. In some cases, KM, kcat or kcat/,KM values could not be reliably determined due to poor model fit. […]

Recombinant Human FAPα = target: T3, Recombinant Human FAPα (Homo sapiens, UniProt Q12884); test: Fluorogenic substrate cleavage assay
T3 construct: purchased R&D Systems 3715-SE-010
T3 sequence (Q12884 1-760): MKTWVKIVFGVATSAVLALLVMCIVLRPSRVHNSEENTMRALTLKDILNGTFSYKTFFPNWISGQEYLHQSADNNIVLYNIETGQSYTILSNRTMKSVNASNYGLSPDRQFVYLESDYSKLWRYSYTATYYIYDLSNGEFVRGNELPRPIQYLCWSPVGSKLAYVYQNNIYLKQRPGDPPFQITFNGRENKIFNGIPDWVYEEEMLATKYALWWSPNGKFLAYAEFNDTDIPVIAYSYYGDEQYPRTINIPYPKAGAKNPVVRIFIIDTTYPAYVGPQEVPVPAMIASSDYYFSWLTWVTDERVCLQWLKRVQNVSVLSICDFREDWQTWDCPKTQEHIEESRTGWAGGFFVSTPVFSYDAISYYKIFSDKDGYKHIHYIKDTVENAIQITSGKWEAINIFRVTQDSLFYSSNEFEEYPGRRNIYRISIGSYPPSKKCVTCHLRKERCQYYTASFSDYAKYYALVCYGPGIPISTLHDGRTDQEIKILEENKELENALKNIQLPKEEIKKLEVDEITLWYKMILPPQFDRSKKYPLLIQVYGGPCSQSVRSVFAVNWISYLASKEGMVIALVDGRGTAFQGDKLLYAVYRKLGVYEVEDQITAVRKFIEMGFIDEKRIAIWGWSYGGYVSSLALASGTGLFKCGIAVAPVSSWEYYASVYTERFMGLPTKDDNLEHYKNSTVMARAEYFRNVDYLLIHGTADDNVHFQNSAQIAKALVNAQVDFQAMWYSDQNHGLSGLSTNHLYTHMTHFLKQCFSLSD
Experimental: as §1, §2, §3, §4
as §5, with “min. […]” for “min.”

[1] = 3 nM DPP4, 37 °C, 60 min, Michaelis-Menten fit, triplicates
[2] = 3 nM DPP4, 37 °C, 60 min, Michaelis-Menten fit, triplicates, ± SD
[3] = 6 nM DPP9, 37 °C, 60 min, Michaelis-Menten fit, triplicates

T2 sequence (Q86TI2 whole entry): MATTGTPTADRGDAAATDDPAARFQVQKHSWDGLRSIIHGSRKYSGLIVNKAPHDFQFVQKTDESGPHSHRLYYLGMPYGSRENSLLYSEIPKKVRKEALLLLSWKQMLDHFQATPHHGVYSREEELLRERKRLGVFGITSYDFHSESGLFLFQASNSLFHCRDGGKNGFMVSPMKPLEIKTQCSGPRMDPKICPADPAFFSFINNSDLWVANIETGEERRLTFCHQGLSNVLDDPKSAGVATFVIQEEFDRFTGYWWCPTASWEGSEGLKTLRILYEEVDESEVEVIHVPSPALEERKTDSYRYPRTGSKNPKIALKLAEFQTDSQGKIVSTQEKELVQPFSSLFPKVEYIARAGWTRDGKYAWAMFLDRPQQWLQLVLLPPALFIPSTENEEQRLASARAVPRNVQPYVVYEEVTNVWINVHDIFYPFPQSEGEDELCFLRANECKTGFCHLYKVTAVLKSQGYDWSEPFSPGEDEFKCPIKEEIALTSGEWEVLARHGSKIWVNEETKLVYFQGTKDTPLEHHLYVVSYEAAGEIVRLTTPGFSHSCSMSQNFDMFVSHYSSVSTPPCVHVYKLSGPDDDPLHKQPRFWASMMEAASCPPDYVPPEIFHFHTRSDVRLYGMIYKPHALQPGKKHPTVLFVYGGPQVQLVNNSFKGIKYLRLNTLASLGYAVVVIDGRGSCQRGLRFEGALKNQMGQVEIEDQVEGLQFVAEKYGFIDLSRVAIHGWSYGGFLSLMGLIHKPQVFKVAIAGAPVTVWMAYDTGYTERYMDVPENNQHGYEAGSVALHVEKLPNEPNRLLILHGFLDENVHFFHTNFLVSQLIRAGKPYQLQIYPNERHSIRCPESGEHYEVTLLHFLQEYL
T1 sequence (P27487 whole entry): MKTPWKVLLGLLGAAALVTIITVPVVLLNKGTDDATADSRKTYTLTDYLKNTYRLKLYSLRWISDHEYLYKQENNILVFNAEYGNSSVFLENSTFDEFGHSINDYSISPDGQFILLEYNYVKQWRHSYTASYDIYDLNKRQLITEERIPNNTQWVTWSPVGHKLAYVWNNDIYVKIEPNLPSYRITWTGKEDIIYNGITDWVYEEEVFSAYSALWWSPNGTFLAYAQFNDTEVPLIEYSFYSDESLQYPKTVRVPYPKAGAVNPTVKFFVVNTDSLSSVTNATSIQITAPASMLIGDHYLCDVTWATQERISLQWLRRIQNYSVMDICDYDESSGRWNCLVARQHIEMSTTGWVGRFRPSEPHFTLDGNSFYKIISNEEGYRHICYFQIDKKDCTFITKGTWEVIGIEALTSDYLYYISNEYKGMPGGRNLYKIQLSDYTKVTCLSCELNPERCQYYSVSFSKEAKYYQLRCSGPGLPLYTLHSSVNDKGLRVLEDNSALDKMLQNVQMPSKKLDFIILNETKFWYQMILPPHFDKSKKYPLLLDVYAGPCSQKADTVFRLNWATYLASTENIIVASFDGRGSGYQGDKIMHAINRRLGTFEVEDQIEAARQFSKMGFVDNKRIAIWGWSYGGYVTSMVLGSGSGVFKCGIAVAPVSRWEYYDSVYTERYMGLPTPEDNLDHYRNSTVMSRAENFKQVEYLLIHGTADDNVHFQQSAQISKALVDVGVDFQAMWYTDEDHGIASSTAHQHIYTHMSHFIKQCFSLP

| selectivity for DPP4 (vs FAPα) (Recombinant Human FAPα; Supplementary figure 11, 200 μM, 1 hour at 37°C, 2 nM DPP4 vs 10 nM FAPα, RFU/min) | Km (Recombinant Human DPP4; 3 nM DPP4, 25 mM Tris, pH 7.5, 37 °C, 60 min, ex/em 355/460 nm, Michaelis-Menten fit, triplicates, ± SD) | Km (Recombinant Human DPP9; 6 nM DPP9, 25 mM Tris, pH 7.5, 37 °C, 60 min, Michaelis-Menten fit, triplicates, ± SD) | kcat (Recombinant Human DPP9; [3]) | kcat/KM (Recombinant Human DPP9; [3]) | SI (selectivity index, coefficient of the proteases kcat/Km), DPP4 vs DPP9 (Recombinant Human DPP9; kcat/KM DPP4 over kcat/KM DPP9) | SMILES | SI (selectivity index, coefficient of the proteases kcat/Km), FAPα vs DPP4 (Recombinant Human DPP4) | SI (selectivity index, coefficient of the proteases kcat/Km), FAPα vs DPP9 (Recombinant Human DPP9) | FAPα activity (substrate cleavage, RFU/min), in words (Recombinant Human FAPα; substrate 200 μM, 10 nM FAPα, 37 °C, triplicates) | kcat/KM (Recombinant Human DPP4; [1]) | kcat (Recombinant Human DPP4; [2]) |
| --- | --- | --- | --- | --- | --- | --- | --- | --- | --- | --- | --- |
| – | – | – | – | – | – | CC(C)C[C@@H]1NC(=O)[C@H](CC(N)=O)NC(=O)[C@H](CCC(N)=O)NC(=O)[C@H](Cc2ccccc2)NC(=O)[C@H](CO)NC(=O)[C@H](C(C)C)NC(=O)[C@@H](N)CSCc2cc(nn2CC(=O)N2CCC[C@H]2C(=O)Nc2ccc3c(CC(N)=O)cc(=O)oc3c2)CSC[C@@H](C(=O)NCC(N)=O)NC(=O)[C@H](CC(=O)O)NC1=O [FAP-33.2] (H-CVSFQNLDCG-NH2; linker 1-9 via X2; N-terminus assumed) | FAPα >>>DPP4 | FAPα >>>DPP9 | – | – | – |
| – | – | – | – | – | – | CC(C)[C@@H]1NC(=O)[C@@H](N)CSCc2cc(n(CC(=O)N3CCC[C@H]3C(=O)Nc3ccc4c(CC(N)=O)cc(=O)oc4c3)n2)CSC[C@@H](C(=O)NCC(N)=O)NC(=O)[C@H](CC(=O)O)NC(=O)[C@H](C)NC(=O)[C@H](CC(N)=O)NC(=O)[C@H](CCC(N)=O)NC(=O)[C@H](Cc2ccccc2)NC(=O)[C@H](CO)NC1=O [FAP-33.2A6] (H-CVSFQNADCG-NH2; linker 1-9 via X1; N-terminus assumed) | 6 | FAPα >>>DPP9 | better substrate than the parent FAP-33.2 | 5168 M⁻¹ s⁻¹ | 0.460 ± 0.018 s⁻¹ |
| 16 fold | 52 ± 4 µM | 61 ± 11 µM | 0.21 s⁻¹ | 3455 M⁻¹ s⁻¹ | 110 | Cc1cc(=O)oc2cc(NC(=O)[C@@H]3CCCN3C(=O)CN)ccc12 [GP-AMC] (H-Gly-Pro-{AMC}) | – | – | – | 380000 M⁻¹ s⁻¹ | 19.9 ± 0.6 s⁻¹ |
